Measured values reported in publication PMC10291552, “Computational Design, Synthesis, and Biological Evaluation of Diimidazole Analogues Endowed with Dual PCSK9/HMG-CoAR-Inhibiting Activity” (Journal of Medicinal Chemistry, 2023).
“Also recorded” adds a separate entry of the source.

Columns and labels:
[1] = biological target: T1, HMG-CoAR (catalytic domain) (Homo sapiens, UniProt P04035); experiment: HMG-CoAR activity assay (Sigma kit, NADPH oxidation at 340 nm); assay type: biochemical; details: 10–500 μM tested, 37 °C
T1 construct: and finally, HMG-CoAR (catalytic domain) (2 μL); purchased Sigma Aldrich
T1 sequence (P04035 426-888 limits assumed): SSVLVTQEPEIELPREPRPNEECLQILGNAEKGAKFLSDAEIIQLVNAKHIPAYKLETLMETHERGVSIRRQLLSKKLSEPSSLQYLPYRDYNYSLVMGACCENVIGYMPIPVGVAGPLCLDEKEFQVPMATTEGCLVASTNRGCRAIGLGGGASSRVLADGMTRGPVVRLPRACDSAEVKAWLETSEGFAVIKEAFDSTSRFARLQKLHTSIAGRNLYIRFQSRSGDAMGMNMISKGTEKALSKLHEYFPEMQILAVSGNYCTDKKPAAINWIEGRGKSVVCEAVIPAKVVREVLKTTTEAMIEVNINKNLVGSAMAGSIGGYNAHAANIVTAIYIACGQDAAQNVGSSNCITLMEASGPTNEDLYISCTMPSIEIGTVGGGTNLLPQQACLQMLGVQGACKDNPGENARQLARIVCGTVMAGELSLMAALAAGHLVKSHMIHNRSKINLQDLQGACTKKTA
Method: The experiments were carried out following the manufacturer’s instructions and optimized protocol.[43] The assay buffer, NADPH, substrate solution, and HMG-CoAR were provided in the HMG-CoAR Assay Kit (Sigma Aldrich SRL, Milan, Italy). The experiments were carried out following the manufacturer’s instructions at 37 °C. In particular, each reaction (200 μL) was prepared adding the reagents in the following order: 1× assay buffer, a 10–500 μM dose of sonicated Dim analogues or vehicle (C), NADPH (4 μL), the substrate solution (12 μL), and finally, HMG-CoAR (catalytic domain) (2 μL). Subsequently, the samples were mixed, and the absorbance at 340 nm was read by a microplate reader (Synergy H1, Winooski, VT, USA) at times of 0 and 10 min. The HMGCoAR-dependent oxidation of NADPH and the inhibition properties of the peptides were measured by absorbance reduction, which is directly proportional to enzyme activity.

[2] = test system: HepG2 cells; experiment: HepG2 cell viability (MTT assay); assay type: cell-based, human; details: 48 h treatment, 0.1 nM to 10 μM, versus control cells
Method: Figure 3 HepG2 cell viability after the Dim3 (A) and Dim16 (B) treatments. Bar graphs indicating the results of the cell viability assay of HepG2 cells after Dim3 and Dim16 (0.1–10,000 nM) treatment for 48 h. The data points represent the mean ± SD of the three experiments in triplicate. ns: not significant.
The HepG2 cell line was bought from ATCC (HB-8065, ATCC from LGC Standards, Milan, Italy) and cultured in DMEM high glucose with stable L-glutamine supplemented with 10% FBS, 100 U/mL penicillin, and 100 μg/mL streptomycin (complete growth medium) with incubation at 37 °C under a 5% CO2 atmosphere.

[3] = test system: LDLR localized on HepG2 surfaces; experiment: In-cell Western assay of LDLR on the HepG2 cell surface in the presence of PCSK9; assay type: cell-based, human; details: for LDLR levels on HepG2 surface: co-incubated with PCSK9 4 μg/mL, relative to untreated control cells; for fold more active than Rim13: LDLR restoration and LDL uptake in HepG2 cells, versus Rim13 ref 25
Method: For the experiments, a total of 3 × 10^4 HepG2 cells/well were seeded in 96-well plates. The following day, the cells were washed with PBS and then starved overnight (O/N) in DMEM without FBS and antibiotics. After starvation, the HepG2 cells were treated with 4.0 μg/mL PCSK9-WT and 4.0 μg/mL PCSK9 + diimidazole analogues and vehicle (H2O) for 2 h at 37 °C under a 5% CO2 atmosphere. Subsequently, they were fixed in 4% paraformaldehyde for 20 min at room temperature (RT). Cells were washed 5 times with 100 μL of PBS/well (each wash was for 5 min at RT), and the endogenous peroxide activity was quenched by adding 3% H2O2 for 20 min at RT. Non-specific sites were blocked with 100 μL/well of 5% bovine serum albumin (BSA, Sigma) in PBS for 1.5 h at RT. LDLR primary antibody solution (1:3000 in 5% BSA in PBS, 25 μL/well) was incubated O/N at +4 °C. Subsequently, the primary antibody solution was discarded, and each sample was washed 5 times with 100 μL/well of PBS (each wash was for 5 min at RT). Goat anti-rabbit Ig-HRP secondary antibody solution (Santa Cruz) (1:6000 in 5% BSA in PBS, 50 μL/well) was added and incubated 1 h at RT. The secondary antibody solution was washed 5 times with 100 μL/well of PBS (each wash for 5 min at RT). Freshly prepared TMB substrate (Pierce, 100 μL/well) was added, and the plate was incubated at RT until the desired color was developed. The reaction was stopped with 2 M H2SO4, and then the absorbance at 450 nm was measured using a microplate reader (Synergy H1, Winooski, VT, USA). After the reading, the cells were stained by adding 1× Janus Green stain, incubating for 5 min at RT. The dye was removed, and the sample was washed 5 times with water. Afterward, 100 μL of 0.5 M HCl for well was added, and the solution was incubated for 10 min. After 10 s of shaking, the OD at 595 nm was measured using the microplate reader (Synergy H1, Winooski, VT, USA).

[4] = test system: HepG2 cells; experiment: Fluorescent LDL uptake by HepG2 cells in the presence of PCSK9; assay type: cell-based, human; details: co-incubated with PCSK9 4 μg/mL, relative to untreated control cells
Method: HepG2 cells (3 × 10^4/well) were seeded in 96-well plates and kept in complete growth medium for 2 days before treatment. On the third day, the cells were washed with PBS and then starved overnight (O/N) in DMEM without FBS and antibiotics. After starvation, they were treated with 4.0 μg/mL PCSK9, 4.0 μg/mL PCSK9 + diimidazole analogues, and vehicle (H2O) for 2 h with at 37 °C under a 5% CO2 atmosphere. At the end of the treatment, the culture medium was replaced with 50 μL/well LDL-DyLight 550 working solution (Cayman Chemical Company, Ann Arbor, MI, USA) prepared in DMEM without FBS and antibiotics. The cells were additionally incubated for 2 h at 37 °C, and then the culture medium was aspirated and replaced with PBS (100 μL/well). The degree of LDL uptake was measured using a Synergy H1 fluorescent plate reader (Winooski, VT, USA) (excitation and emission wavelengths of 540 and 570 nm, respectively). Fluorescent LDL uptake was finally assessed following optimized protocol.[14]

Compound | IC50 [1] | HepG2 cell vitality [2] | LDLR levels on HepG2 surface ([3]; 1 nM) | LDLR levels on HepG2 surface ([3]; 10 nM) | fold more active than Rim13 [3] | fold more effective than Dim3 in restoring LDLR protein level on cell surface ([3]; cellular level, Figure 4) | LDL uptake ([4]; 1 nM) | LDL uptake ([4]; 10 nM) | HMG-CoAR activity IC50 [1]
CNCCCCCn1c(-c2ncc(-c3ccc4ccccc4c3)n2CCCC(C)(C)C)cnc1I [Dim16, 5-(1-(4,4-Dimethylpentyl)-2′-iodo-5-(naphthalen-2-yl)-1H,3′H-[2,4′-biimidazol]-3′-yl)-N-methylpentan-1-amine] | 147 ± 75.1 µM | safe for HepG2 cells and safe | 91.1 ± 2.22% | 87.17 ± 7.42% | 100 | 10 | 81.87 ± 7.45% | 136.47 ± 8.81% | –
C#Cc1ncc(-c2ncc(-c3ccc4ccccc4c3)n2CCCC(C)(C)C)n1CCCCCNC [Dim3, 5-(1-(4,4-Dimethylpentyl)-2′-ethynyl-5-(naphthalen-2-yl)-1H,3′H-[2,4′-biimidazol]-3′-yl)-N-methylpentan-1-amine] | – | safe for HepG2 cells and safe | 77.87 ± 3.04% | 101.1 ± 15.06% | 100 | – | 94.12 ± 10.95% | 103.47 ± 7.34% | no in vitro inhibitory activity; also recorded: not active
